Experimental data from PubChem BioAssay (NCI).
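Following 48 hours of exposure in 96-well plates, responses at five concentrations were used to interpolate endpoints linearly. GI50 marks 50% less growth. TGI denotes the concentration required for complete inhibition of growth.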

Key:
Test in all cases: NCI tumour cell line growth inhibition, 48 h
SK-MEL-28 melanoma = tested on: SK-MEL-28 melanoma
IGROV1 ovarian = tested on: IGROV1 ovarian
NCI-H226 lung = tested on: NCI-H226 lung
NCI-H460 lung = tested on: NCI-H460 lung
HOP-62 NSCLC = tested on: HOP-62 NSCLC
SR leukemia = tested on: SR leukemia
HOP-92 NSCLC = tested on: HOP-92 NSCLC
SNB-75 CNS = tested on: SNB-75 CNS
HCT-116 colon = tested on: HCT-116 colon
SNB-19 CNS = tested on: SNB-19 CNS

| SMILES | TGI (SK-MEL-28 melanoma) | TGI (IGROV1 ovarian) | TGI (NCI-H226 lung) | TGI (NCI-H460 lung) | TGI (HOP-62 NSCLC) | TGI (SR leukemia) | TGI (HOP-92 NSCLC) | TGI (SNB-75 CNS) | TGI (HCT-116 colon) | TGI (SNB-19 CNS) | GI50 (IGROV1 ovarian) | GI50 (HOP-62 NSCLC) | GI50 (SR leukemia) | GI50 (SNB-75 CNS) | GI50 (SK-MEL-28 melanoma) | GI50 (SNB-19 CNS) | GI50 (HOP-92 NSCLC) | GI50 (HCT-116 colon) | GI50 (NCI-H226 lung) |
| --- | --- | --- | --- | --- | --- | --- | --- | --- | --- | --- | --- | --- | --- | --- | --- | --- | --- | --- | --- |
| O=[N+]([O-])c1cccnc1-n1cnc2ccccc21 | > 100 µM | > 100 µM | > 100 µM | > 100 µM | > 100 µM | > 100 µM | > 100 µM | > 100 µM | > 100 µM |  |  |  |  |  |  |  |  |  |  |
| O=C1C=CC(=O)c2c(Cl)ccc(O)c21 | 33 µM | 21 µM | > 100 µM | > 100 µM | > 100 µM |  | 6.96 µM | > 63.4 µM | 23.5 µM | > 100 µM |  |  |  |  |  |  |  |  |  |
| C=CC1CN2CCC1CC2C(O)c1ccnc2ccccc12 (stereo not given) | > 100 µM | > 100 µM | > 100 µM | > 100 µM | > 100 µM | > 100 µM |  | > 100 µM | > 100 µM | > 100 µM | > 100 µM | > 100 µM | > 100 µM | > 100 µM |  |  |  |  |  |
| N#Cc1nc(C#N)n(C(=O)c2ccccc2)c1NC(=O)c1ccccc1 | > 100 µM | > 100 µM | > 100 µM | > 100 µM | > 100 µM |  | > 100 µM | > 100 µM | > 100 µM | > 100 µM |  |  |  |  |  |  |  |  |  |
| NC(=O)Cc1nc2c(=O)[nH]cnc2n1C1OC(CO)C(O)C1O (stereo not given) | > 100 µM | > 100 µM | > 100 µM | > 100 µM | > 100 µM |  | > 100 µM | > 100 µM | > 100 µM | > 100 µM |  |  |  |  |  |  |  |  |  |
| CC(=O)/C(=C\c1ccc(Cl)c(Cl)c1)C(=O)C(C)CN(C)C (stereo not given) | 21 µM | 4.88 µM | 14.9 µM | 48.9 µM | 41.1 µM | 5.21 µM | 9.55 µM |  | 6.79 µM | 5.56 µM |  |  |  |  |  |  |  |  |  |
| Cn1c2ccccc2n2c3ncccc3c(=S)c(C#N)c12 | > 100 µM | > 100 µM | > 100 µM | > 100 µM | > 100 µM | > 100 µM |  | > 100 µM | > 100 µM | > 100 µM |  |  |  |  |  |  |  |  |  |
| CO[C@]1(CN2CCN3CCCC[C@@H]3C2)/C=C/C[C@H](C)[C@@H](C)S(=O)(=O)NC(=O)c2ccc3c(c2)N(C[C@@H]2CC[C@H]21)C[C@@]1(CCCc2cc(Cl)ccc21)CO3 | 3.44 µM |  |  |  |  |  | 3.46 µM | 2.04 µM | 4.79 µM | 4.62 µM |  |  |  | 0.371 µM | 1.86 µM | 2.02 µM | 1.67 µM | 2.01 µM |  |
| Cc1nc(-c2cc3cc(Cl)ccc3oc2=O)cc2c1c(=O)oc1ccc(Cl)cc12 | > 100 µM | > 100 µM | > 100 µM | > 100 µM | > 100 µM | > 100 µM | > 100 µM |  | > 100 µM | > 100 µM |  |  |  |  |  |  |  |  |  |
| CSc1ccc(/C=C2\N=C(c3ccccc3)N(/N=C/c3cc4cc(C)ccc4nc3Cl)C2=O)cc1 | 37.6 µM | 35 µM |  | 57.7 µM | > 100 µM | 44.2 µM | 40.1 µM | 49.2 µM | 33.2 µM | 43.1 µM |  |  |  |  |  |  |  |  |  |
| Cc1csc(NC(=NCCN2CCOCC2)Nc2nc(C)cs2)n1 | > 100 µM | > 100 µM | > 100 µM | > 100 µM | > 100 µM |  | > 100 µM | > 100 µM | > 100 µM | > 100 µM |  |  |  |  |  |  |  |  |  |
| COc1ccc2nc3n(c2c1)CCc1cc(OC)c(OC)cc1-3 | > 100 µM |  | > 100 µM | > 100 µM | > 100 µM |  | > 100 µM | > 100 µM | > 100 µM | > 100 µM |  |  |  |  |  |  |  |  |  |
| CO[C@H]1C[C@H](O[C@H]2CC[C@]3(C=O)[C@H]4CC[C@]5(C)[C@@H](C6=CC(=O)OC6)CC[C@]5(O)[C@@H]4CC[C@]3(O)C2)O[C@H](C)[C@H]1O | 5.37 µM | 7.86 µM | 1.28 µM | 0.176 µM | 0.135 µM |  | 1.73 µM | 3.13 µM | 0.737 µM | 4.8 µM |  |  |  |  |  |  |  |  |  |
| O=C1c2ccccc2-c2[nH]c3cn[nH]c(=O)c3c21 |  | > 100 µM | > 100 µM | > 100 µM | > 100 µM | > 100 µM | > 100 µM | > 100 µM | > 100 µM | > 100 µM |  |  |  |  |  |  |  |  |  |
| COc1ccccc1CNCCCCCCCCCCCCN1C(=O)c2ccc3c4c(ccc(c24)C1=O)C(=O)N(CCCCCCCCCCCCNCc1ccccc1OC)C3=O | > 50 µM | > 50 µM | > 50 µM |  | > 50 µM |  |  | 46.9 µM |  | > 50 µM | > 50 µM | 3.64 µM |  | 2 µM | > 50 µM | > 50 µM |  |  | > 50 µM |
| CC1CC/C(=C\c2ccc(Cl)cc2)c2nc(N)c(C#N)c(-c3ccc(Cl)cc3)c21 (stereo not given) | > 100 µM | > 100 µM | > 100 µM |  | > 100 µM | > 100 µM |  | > 100 µM | > 100 µM | 69.5 µM |  |  |  |  |  |  |  |  |  |
| CC(=O)CC(=O)CCC(=O)O | > 100 µM | > 100 µM | > 100 µM | > 100 µM |  | > 100 µM |  |  | > 100 µM | > 100 µM |  |  |  |  |  |  |  |  |  |
| Nc1ncnc2c1ncn2Cc1cccc(CCl)c1 | 51.1 µM | 31.8 µM | 33.4 µM | 29.9 µM | 30.5 µM | 46 µM | 65.5 µM | > 100 µM | 24.6 µM |  |  |  |  |  |  |  |  |  |  |
| CC(C)(C)OC(=O)n1cc(C2CN(O)C(=O)C23CCC(=O)N3Cc2ccccc2)c2ccccc21 (stereo not given) |  | 48.5 µM | 62 µM | > 100 µM | > 100 µM | > 100 µM | 50.8 µM | > 100 µM | > 100 µM | > 100 µM |  |  |  |  |  |  |  |  |  |
| O=C1c2ccccc2C(=O)N1c1nc(-c2ccc(Cl)cc2)cc(N2N=C(c3ccc(Br)cc3)CC2c2ccccc2)n1 (stereo not given) | 21.4 µM | > 32.6 µM | 29.8 µM | > 41.9 µM | > 23 µM | 2.42 µM | 82.3 µM |  | > 20.5 µM | > 33.8 µM |  |  |  |  |  |  |  |  |  |
| C/C(=N\Nc1nc2ccccc2[nH]1)c1cc2ccccc2cn1 | 0.429 µM | 1.13 µM | 1.69 µM | 1.45 µM |  | > 100 µM | 0.819 µM | 1.56 µM | 1.04 µM | 1.64 µM |  |  |  |  |  |  |  |  |  |
| O=C(c1ccco1)N(C(=S)OC12CC3CC(CC(C3)C1)C2)c1ccccc1 | > 100 µM |  | > 100 µM | > 100 µM | > 100 µM | 97.9 µM | > 100 µM | > 100 µM | 48.7 µM | > 100 µM |  |  |  |  |  |  |  |  |  |
| COc1c(C)c(C/C=C(\C)CC/C=C(\C)CCC=C(C)C)c(OC)c(OC)c1OC |  | > 100 µM |  | > 100 µM | > 100 µM | > 100 µM | > 100 µM | > 100 µM | > 100 µM | > 100 µM |  |  |  |  |  |  |  |  |  |
